Experimental data taken from US12391641B2, “Prostaglandin EP4 receptor antagonist compounds” (NXERA PHARMA UK LIMITED, priority 2019, dated 2025).

Biological target: T1, Human prostaglandin E2 receptor 4 (EP4) (Homo sapiens, UniProt P35408)
T1 construct: expressed in transfected cells; host or cells: HEK293 cells transduced with EP4 BacMam virus
Experiment: cAMP Gs Functional Assay (HTRF cAMP dynamic-2), antagonism of PGE2
Format: cell-based
Settings: HEK293 cells transfected with EP4 BacMam virus; PGE2 challenge at EC80 (7 nM); pIC50 converted to functional pKb with a modified Cheng Prussoff equation; read-out: Human EP4 fpKb (converted)
How it was run: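 HEK293 cells transiently expressing human EP4 via BacMam (36 h), preincubated with compound 30 min at 37 °C in DMEM + 0.5 mM IBMX, 5000 cells/well, then challenged with EC80 PGE2 (7 nM). cAMP read by HTRF; pIC50 converted to pKb by modified Cheng-Prusoff using agonist EC50 and challenge concentration.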

T1 sequence (P35408 whole entry): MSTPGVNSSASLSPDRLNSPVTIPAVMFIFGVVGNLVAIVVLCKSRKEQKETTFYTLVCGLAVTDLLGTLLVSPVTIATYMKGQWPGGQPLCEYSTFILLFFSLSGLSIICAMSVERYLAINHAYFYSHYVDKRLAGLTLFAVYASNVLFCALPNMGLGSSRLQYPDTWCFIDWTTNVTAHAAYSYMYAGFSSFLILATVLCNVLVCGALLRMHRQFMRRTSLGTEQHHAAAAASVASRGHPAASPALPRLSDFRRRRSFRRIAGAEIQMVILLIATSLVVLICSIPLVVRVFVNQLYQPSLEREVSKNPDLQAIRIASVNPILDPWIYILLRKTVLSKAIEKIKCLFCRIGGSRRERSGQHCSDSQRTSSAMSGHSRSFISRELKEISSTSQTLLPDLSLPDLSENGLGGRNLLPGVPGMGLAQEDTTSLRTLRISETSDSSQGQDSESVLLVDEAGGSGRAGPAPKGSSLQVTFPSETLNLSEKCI

Row | SMILES | Ki [nM]
1 | CC(C)[C@H](OCc1ccc(C(F)(F)F)cc1)C(=O)N[C@@H](C)c1ccc(C(=O)O)cc1 [Example 16, 4-((S)-1-((S)-3-methyl-2-((4-(trifluoromethyl)benzyl)oxy)butanamido)ethyl)benzoic acid] | 178
2 | CC(C)[C@@H](OCc1cccc(C#N)c1)C(=O)NC1(c2ccc(C(=O)O)cc2)CC1 [Example 54, (R)-4-(1-(2-((3-cyanobenzyl)oxy)-3-methylbutanamido)cyclopropyl)benzoic acid] | > 12900
3 | CC(C)[C@@H](OCc1ccc(F)cc1)C(=O)N[C@@H](C)c1ccc(-c2nnn[nH]2)cc1 [Example 42, (R)—N—((S)-1-(4-(1H-tetrazol-5-yl)phenyl)ethyl)-2-((4-fluorobenzyl)oxy)-3-methylbutanamide] | 1.74
4 | CC(C)[C@@H](OCc1ccc(C(F)(F)F)cc1)C(=O)NC1(c2ccc(C(=O)O)cc2)CC1 [Example 2, (R)-4-(1-(3-methyl-2-((4-(trifluoromethyl)benzyl)oxy)butanamido)cyclopropyl)benzoic acid] | 0.891
5 | CC(C)[C@@H](OCc1ccc2c(c1)OC(F)(F)O2)C(=O)NC1(c2ccc(C(=O)O)cc2)CC1 [Example 55, (R)-4-(1-(2-((2,2-difluorobenzo[d][1,3]dioxol-5-yl)methoxy)-3-methylbutanamido)cyclopropyl)benzoic acid] | 0.479
6 | CC(C)[C@@H](OCc1ccc(C(F)(F)F)cn1)C(=O)NC1(c2ccc(C(=O)O)cc2)CC1 [Example 75, (R)-4-(1-(3-methyl-2-((5-(trifluoromethyl)pyridin-2-yl)methoxy)butanamido)cyclopropyl)benzoic acid] | 69.2
7 | CC(C)[C@@H](OCc1cccc(O)c1)C(=O)N[C@@H](C)c1ccc(C(=O)O)cc1 [Example 38, 4-((S)-1-((R)-2-((3-hydroxybenzyl)oxy)-3-methylbutanamido)ethyl)benzoic acid] | > 4680
8 | CC(C)[C@@H](OCc1ccc(C(F)(F)F)cc1)C(=O)NC(C)(C)c1ccc(C(=O)O)cc1 [Example 64, (R)-4-(2-(3-methyl-2-((4-(trifluoromethyl)benzyl)oxy)butanamido)propan-2-yl)benzoic acid] | 47.9
9 | CC(C)[C@@H](OCc1cccc(S(C)(=O)=O)c1)C(=O)NC1(c2ccc(C(=O)O)cc2)CC1 [Example 33, (R)-4-(1-(3-methyl-2-((3-(methylsulfonyl)benzyl)oxy)butanamido)cyclopropyl)benzoic acid] | 14.5

Other lines, results leading:

Row | Ki [nM] | SMILES
10 | 6.61 | O=C(O)c1ccc(C2(NC(=O)C(OCc3ccc(C(F)(F)F)cc3)C3CCC3)CC2)cc1 (stereo not shown) [Example 96, 4-(1-(2-cyclobutyl-2-((4-(trifluoromethyl)benzyl)oxy)acetamido)cyclopropyl)benzoic acid]
11 | 11.2 | CC(C)[C@@H](OCc1ccc(C(F)F)nc1)C(=O)NC1(c2ccc(C(=O)O)cc2)CC1 [Example 84, (R)-4-(1-(2-((6-(difluoromethyl)pyridin-3-yl)methoxy)-3-methylbutanamido)cyclopropyl)benzoic acid]
12 | > 603 | CC(C)C(OCc1cccc(C2COC2)c1)C(=O)NC1(c2ccc(C(=O)O)cc2)CC1 (single isomer, unassigned) [Example 87, 4-(1-(3-methyl-2-((3-(oxetan-3-yl)benzyl)oxy)butanamido)cyclopropyl)benzoic acid]
13 | 0.055 | CC(C)[C@@H](OCc1ccc(F)c(C2CC2)c1)C(=O)N[C@@H](C)c1ccc(C(=O)O)cc1 [Example 85, 4-((S)-1-((R)-2-((3-cyclopropyl-4-fluorobenzyl)oxy)-3-methylbutanamido)ethyl)benzoic acid]
